{"source": "patent EP0034120A1", "about": "“Derivatives of phenoxy-phenoxy-carboxylic acids” (CIBA-GEIGY AG, priority 1980, dated 1981)", "type_in_all_cases": "in vivo", "set-up_in_all_cases": "key: 1 Pflanze abgestorben; 2-4 schwere Schädigung; 3: 2-4 schwere Schädigung; 2-4 schwere Schädigung; 5, 6 mittlere Schäden; 5, 6 mittlere Schäden; 7, 8 leichte Schäden; 7, 8 leichte Schäden; 9 Pflanze gedeiht normal, wie unbehandelte Kontrollpflanze", "key": {"[1]": {"system": "Ammania indica", "experiment": "Selective herbicidal action in rice, post-emergence (flooded trays)", "conditions": "applied into paddy water, evaluated after 4 weeks", "protocol": "(§1) Reispflänzchen, welche 25 Tage alt sind, wurden im Gewächshaus in grosse rechtackige Eternitschalen vergflanzt. Zwischen die Reiben der Reispfianzon wurden dann Samen der in Reiskulturen vorkommanden Unkräuter Echinochloa crus galli, Cyperus difformis, ? und Rotala gesät. Die Schalen wurden gut bewässert und bei einer Temperatur von ca. 25°C und hoher Luftfeuchtigkeit gehalten. Nach 12 Tagen, wenn die Unkräuter aufgelaufen sind und das 2-3 Blattstadium erreicht haben, wurde die Erde in der Schale mit einer 2,5 cm hohen Schicht Wasser bedeckt. Die Verbindung No. 2 wurde denn als Emulsionskonzentrat mittels einer-Pipette zwischen die Pflanzenreihen appliziert, wobei man das Emulsionskonzentrat so verdünnte und auftrug, dass es einer Applikationsmenge im Feld von 2 und 1 kg Wirkstoff pro Hektar entsprach. Der Versuch wurde nach 4 Wochen ausgewertat."}, "[2]": {"system": "Reis", "experiment": "Selective herbicidal action in rice, post-emergence (flooded trays)", "conditions": "applied as emulsion concentrate into paddy water, evaluated after 4 weeks", "protocol": "as §1"}, "[3]": {"system": "Cyperus difformis", "experiment": "Selective herbicidal action in rice, post-emergence (flooded trays)", "conditions": "applied into paddy water, evaluated after 4 weeks", "protocol": "as §1"}, "[4]": {"system": "Rotala indica", "experiment": "Selective herbicidal action in rice, post-emergence (flooded trays)", "conditions": "applied into paddy water, evaluated after 4 weeks", "protocol": "as §1"}, "[5]": {"system": "Echinochloa crus galli", "experiment": "Selective herbicidal action in rice, post-emergence (flooded trays)", "conditions": "applied into paddy water, evaluated after 4 weeks", "protocol": "as §1"}, "[6]": {"system": "amarantus retrofl.", "experiment": "Herbicidal action, pre-emergent application (greenhouse)", "conditions": "after 3 weeks", "protocol": "(§2) wurde durchfolgende Versuche ermittelt: Herbizide Wirkung bei Applikation der Wirkstoffe vor dem Auflaufen der Pflanzen (pre-emergent) Im Gewächshaus werden Pflanzensamen in Blumentöpfe von ca. 11 cm Durchmesser gesät. […] Die Töpfe werden dann im Gewächshaus unter optimalen Bedingungen für das Pflanzenwachstum, regelmässiges Bewässern, einer Temperatur von 22-25°C und 50-70% relativer Luftfeuchtigkeit gehalten. Der Versuch wird nach 3 Wochen abgebrochen und der Zustand der Pflanzen gemäss dem folgenden EWRC (European Weed Research Councel) Bewertungsschema registriert: • 1 Pflanze abgestorben • 2-4 schwere Schädigung • 5, 6 mittlere Schäden • 7, 8 leichte Schäden • 9 Pflanze gedeiht normal, wie unbehandelte Kontrollpflanze."}, "[7]": {"system": "beta vulgaris", "experiment": "Herbicidal action, pre-emergent application (greenhouse)", "conditions": "after 3 weeks", "protocol": "as §2"}, "[8]": {"system": "chrysanthemum l.", "experiment": "Herbicidal action, pre-emergent application (greenhouse)", "conditions": "after 3 weeks", "protocol": "as §2"}, "[9]": {"system": "Reis", "experiment": "Herbicidal action, pre-emergent application (greenhouse)", "conditions": "after 3 weeks", "protocol": "as §2"}, "[10]": {"system": "Weizen", "experiment": "Herbicidal action, pre-emergent application (greenhouse)", "conditions": "after 3 weeks", "protocol": "as §2"}, "[11]": {"system": "abutilon sp", "experiment": "Herbicidal action, pre-emergent application (greenhouse)", "conditions": "after 3 weeks", "protocol": "as §2"}, "[12]": {"system": "viola tricolor", "experiment": "Herbicidal action, pre-emergent application (greenhouse)", "conditions": "after 3 weeks", "protocol": "as §2"}, "[13]": {"system": "sinapis alba", "experiment": "Herbicidal action, pre-emergent application (greenhouse)", "conditions": "after 3 weeks", "protocol": "as §2"}, "[14]": {"system": "chenopodium sp.", "experiment": "Herbicidal action, pre-emergent application (greenhouse)", "conditions": "after 3 weeks", "protocol": "as §2"}}, "data": [{"smiles": "CCOC(=O)CCC(C)Oc1cc(Oc2ccc(C(F)(F)F)cc2Cl)ccc1Cl", "note": "(stereo not shown) [Verbindung No. 2, 4-[3'-(2\"-Chlor-4-trifluormethylphenoxy)-6'-chlorphenoxy]-valeriansäure-äthylester]", "values": [{"measurement": "Selektive herbizide Wirkung (rating)", "setting": "[1]; 1 kg/ha", "result": 3}, {"measurement": "Selektive herbizide Wirkung (rating)", "setting": "[1]; 2 kg/ha", "result": 1}, {"measurement": "Selektive herbizide Wirkung (rating)", "setting": "[2]; 1 kg/ha", "result": 7}, {"measurement": "Selektive herbizide Wirkung (rating)", "setting": "[2]; 2 kg/ha", "result": 7}, {"measurement": "Selektive herbizide Wirkung (rating)", "setting": "[3]; 1 kg/ha", "result": 5}, {"measurement": "Selektive herbizide Wirkung (rating)", "setting": "[3]; 2 kg/ha", "result": 3}, {"measurement": "Selektive herbizide Wirkung (rating)", "setting": "[4]; 1 kg/ha", "result": 4}, {"measurement": "Selektive herbizide Wirkung (rating)", "setting": "[4]; 2 kg/ha", "result": 3}, {"measurement": "Selektive herbizide Wirkung (rating)", "setting": "[5]; 1 kg/ha", "result": 4}, {"measurement": "Selektive herbizide Wirkung (rating)", "setting": "[5]; 2 kg/ha", "result": 3}, {"measurement": "Zustand der Pflanzen (EWRC Bewertungsschema)", "setting": "[6]; Aufwandmenge 2 kg/ha", "result": 1}, {"measurement": "Zustand der Pflanzen (EWRC Bewertungsschema)", "setting": "[6]; Aufwandmenge 4 kg/ha", "result": 1}, {"measurement": "Zustand der Pflanzen (EWRC Bewertungsschema)", "setting": "[7]; Aufwandmenge 2 kg/ha", "result": 3}, {"measurement": "Zustand der Pflanzen (EWRC Bewertungsschema)", "setting": "[7]; Aufwandmenge 4 kg/ha", "result": 1}, {"measurement": "Zustand der Pflanzen (EWRC Bewertungsschema)", "setting": "[8]; Aufwandmenge 2 kg/ha", "result": 1}, {"measurement": "Zustand der Pflanzen (EWRC Bewertungsschema)", "setting": "[8]; Aufwandmenge 4 kg/ha", "result": 1}, {"measurement": "Zustand der Pflanzen (EWRC Bewertungsschema)", "setting": "[9]; Aufwandmenge 2 kg/ha", "result": 9}, {"measurement": "Zustand der Pflanzen (EWRC Bewertungsschema)", "setting": "[9]; Aufwandmenge 4 kg/ha", "result": 9}, {"measurement": "Zustand der Pflanzen (EWRC Bewertungsschema)", "setting": "[10]; Aufwandmenge 2 kg/ha", "result": 9}, {"measurement": "Zustand der Pflanzen (EWRC Bewertungsschema)", "setting": "[10]; Aufwandmenge 4 kg/ha", "result": 9}, {"measurement": "Zustand der Pflanzen (EWRC Bewertungsschema)", "setting": "[11]; Aufwandmenge 2 kg/ha", "result": 5}, {"measurement": "Zustand der Pflanzen (EWRC Bewertungsschema)", "setting": "[11]; Aufwandmenge 4 kg/ha", "result": 1}, {"measurement": "Zustand der Pflanzen (EWRC Bewertungsschema)", "setting": "[12]; Aufwandmenge 2 kg/ha", "result": 2}, {"measurement": "Zustand der Pflanzen (EWRC Bewertungsschema)", "setting": "[12]; Aufwandmenge 4 kg/ha", "result": 1}, {"measurement": "Zustand der Pflanzen (EWRC Bewertungsschema)", "setting": "[13]; Aufwandmenge 2 kg/ha", "result": 1}, {"measurement": "Zustand der Pflanzen (EWRC Bewertungsschema)", "setting": "[13]; Aufwandmenge 4 kg/ha", "result": 1}, {"measurement": "Zustand der Pflanzen (EWRC Bewertungsschema)", "setting": "[14]; Aufwandmenge 2 kg/ha", "result": 2}, {"measurement": "Zustand der Pflanzen (EWRC Bewertungsschema)", "setting": "[14]; Aufwandmenge 4 kg/ha", "result": 1}]}]}
